Source: patent US12503436B2, “Compounds and compositions for treating conditions associated with STING activity” (NOVARTIS PHARMA AG, priority 2021, dated 2025)
pEC50: −log10 of the molar value.

What follows are compounds tested against STING (Homo sapiens, UniProt Q86WV6, G230A/H232R/R293Q/R71H) (assay: STING reporter assay in THP1-Dual KO-IFNAR2 cells (2′3′cGAMP stimulation, luciferase reporter)). Settings: 15 μM 2′3′cGAMP stimulation, 24 h, read-out: Pharmaron, THP1_IFNAR2 STING 24 h Luci Normalized: GeoMean EC50.
Sequence of STING (Q86WV6 whole entry R71H/G230A/H232R/R293Q): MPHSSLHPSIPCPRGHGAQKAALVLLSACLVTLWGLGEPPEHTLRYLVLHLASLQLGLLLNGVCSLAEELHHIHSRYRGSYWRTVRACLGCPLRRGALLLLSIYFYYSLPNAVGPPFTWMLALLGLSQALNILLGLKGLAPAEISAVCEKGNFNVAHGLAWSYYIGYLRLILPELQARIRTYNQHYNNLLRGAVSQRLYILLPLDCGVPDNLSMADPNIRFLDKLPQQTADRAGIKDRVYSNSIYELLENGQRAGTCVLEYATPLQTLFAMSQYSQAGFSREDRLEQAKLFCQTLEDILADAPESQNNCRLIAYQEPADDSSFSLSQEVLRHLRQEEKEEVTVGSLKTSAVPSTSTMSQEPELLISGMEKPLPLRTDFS
Format: cell-based
Method in brief: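 EC50 from secreted luciferase (QUANTI-Luc Plus luminescence of supernatant) after 24 h at 37 °C, 5% CO2. Cells: THP1-Dual KO-IFNAR2, treated with compound (0.0017-100 μM final) plus lipofected 2′3′cGAMP at 15 μM final.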
Work on CC1(C(=O)Nc2c[nH]c3ccc(OCc4ccc(C(F)(F)F)cc4)cc23)CCNCC1 [Compound 528, 4-methyl-N-(5-((4-(trifluoromethyl)benzyl)oxy)-1H-indol-3-yl)piperidine-4-carboxamide] yielded a pEC50 of 4.00 to 5.30.
For CC1(C(=O)Nc2c[nH]c3ccc(O[C@H]4C[C@@H](c5ccc(C(F)(F)F)cc5)C4)cc23)CCNCC1 [Compound 529, 4-methyl-N-(5-(cis-3-(4-(trifluoromethyl)phenyl)cyclobutoxy)-1H-indol-3-yl)piperidine-4-carboxamide], the pEC50 was 4.00 to 5.30.
C[C@]1(C(=O)Nc2c[nH]c3ccc(OCCc4ccc(C(F)(F)F)cc4)cc23)C[C@H](CO)C1 [Compound 530, trans-3-(hydroxymethyl)-1-methyl-N-(5-(4-(trifluoromethyl)phenethoxy)-1H-indol-3-yl)cyclobutane-1-carboxamide] showed a pEC50 of 6.70 to 7.40.
Compound C[C@]1(C(=O)Nc2c[nH]c3ccc(OCCc4ccc(C(F)(F)F)cc4)cc23)C[C@@H](CO)C1 [Compound 531, cis-3-(hydroxymethyl)-1-methyl-N-(5-(4-(trifluoromethyl)phenethoxy)-1H-indol-3-yl)cyclobutane-1-carboxamide] has a pEC50 of 6.70 to 7.40.
In the case of CC(=O)Nc1c[nH]c2ccc(CC(Cc3ccc(C(F)(F)F)cc3)C(=O)O)cc12 (centres unmarked) [Compound 532, 3-(3-acetamido-1H-indol-5-yl)-2-(4-(trifluoromethyl)benzyl)propanoic acid], the pEC50 was 4.00 to 5.30.
Work on O=C(Nc1c[nH]c2ccc(OCCc3ccc(C(F)(F)F)cc3)cc12)[C@H]1C[C@@H](CO)C1 [Compound 533, cis-3-(hydroxymethyl)-N-(5-(4-(trifluoromethyl)phenethoxy)-1H-indol-3-yl)cyclobutane-1-carboxamide] yielded a pEC50 of 6.70 to 7.40.
In the case of O=C(Nc1c[nH]c2ccc(OCCc3ccc(C(F)(F)F)cc3)cc12)[C@H]1C[C@H](CO)C1 [Compound 534, trans-3-(hydroxymethyl)-N-(5-(4-(trifluoromethyl)phenethoxy)-1H-indol-3-yl)cyclobutane-1-carboxamide], the pEC50 was 6.70 to 7.40.
Compound CC(=O)Nc1c[nH]c2ccc(CCOc3cccc(C(C)N(C)C)c3)cc12 (centres unmarked) [Compound 536, N-(5-(2-(3-(1-(dimethylamino)ethyl)phenoxy)ethyl)-1H-indol-3-yl)acetamide] has a pEC50 of 4.00 to 5.30.
O=C(Nc1c[nH]c2ccc(O[C@H]3C[C@@H](c4ccc(C(F)(F)F)cc4)C3)cc12)C1CNC1 [Compound 537, N-(5-(cis-3-(4-(trifluoromethyl)phenyl)cyclobutoxy)-1H-indol-3-yl)azetidine-3-carboxamide] was tested, and the pEC50 was 4.00 to 5.30.
Work on CC(=O)Nc1c[nH]c2ccc(C(C)C[C@@H]3C[C@@H]4CN(CC(F)(F)F)C[C@@H]4C3)cc12 (stereo partly drawn) [Compound 538, N-(5-(1-((3aR,5r,6aS)-2-(2,2,2-trifluoroethyl)octahydrocyclopenta[c]pyrrol-5-yl)propan-2-yl)-1H-indol-3-yl)acetamide] yielded a pEC50 of 5.30 to 6.00.
Compound CC(=O)Nc1c[nH]c2ccc(CCC[C@@H]3C[C@@H]4CN(CC(F)(F)F)C[C@@H]4C3)cc12 [Compound 539, N-(5-(3-((3aR,5r,6aS)-2-(2,2,2-trifluoroethyl)octahydrocyclopenta[c]pyrrol-5-yl)propyl)-1H-indol-3-yl)acetamide] has a pEC50 of 5.30 to 6.00.
CC1(C(=O)Nc2c[nH]c3ccc(CC(O)Cc4ccc(C(F)(F)F)cn4)cc23)CC1 (centres unmarked) [Compound 540, N-(5-(2-hydroxy-3-(5-(trifluoromethyl)pyridin-2-yl)propyl)-1H-indol-3-yl)-1-methylcyclopropane-1-carboxamide] gave a pEC50 of 5.30 to 6.00.
Work on CC(=O)Nc1c[nH]c2ccc(CCOc3cccnc3C(F)(F)F)cc12 [Compound 541, N-(5-(2-((2-(trifluoromethyl)pyridin-3-yl)oxy)ethyl)-1H-indol-3-yl)acetamide] yielded a pEC50 of 4.00 to 5.30.
Work on CC1(C(=O)Nc2c[nH]c3ccc(OC[C@H]4C[C@@H]5CN(CC(F)(F)F)C[C@@H]5C4)cc23)COC1 [Compound 542, 3-methyl-N-(5-(((3aR,5s,6aS)-2-(2,2,2-trifluoroethyl)octahydrocyclopenta[c]pyrrol-5-yl)methoxy)-1H-indol-3-yl)oxetane-3-carboxamide] yielded a pEC50 of 6.00 to 6.70.
For CC(=O)Nc1c[nH]c2ccc(CCOc3ccc(C(F)(F)F)c(Br)c3)cc12 [Compound 543, N-(5-(2-(3-bromo-4-(trifluoromethyl)phenoxy)ethyl)-1H-indol-3-yl)acetamide], the pEC50 was 6.00 to 6.70.
In the case of CC(=O)Nc1c[nH]c2ccc(CCOc3ccc(C(F)(F)F)cc3Br)cc12 [Compound 544, N-(5-(2-(2-bromo-4-(trifluoromethyl)phenoxy)ethyl)-1H-indol-3-yl)acetamide], the pEC50 was 6.00 to 6.70.
[2H][13C]([2H])([2H])C(=O)Nc1c[nH]c2ccc(CCOc3ccc(C(F)(F)F)cc3)cc12 [Compound 545, N-(5-(2-(4-(trifluoromethyl)phenoxy)ethyl)-1H-indol-3-yl)acetamide-2-13C-2,2,2-d3] was tested, and the pEC50 was 6.70 to 7.40.
Work on CC(=O)Nc1c[nH]c2ccc(CCOc3ccc(C(F)(F)F)cc3)c(Br)c12 [Compound 546, N-(4-bromo-5-(2-(4-(trifluoromethyl)phenoxy)ethyl)-1H-indol-3-yl)acetamide] yielded a pEC50 of 5.30 to 6.00.
Compound CC(=O)Nc1c[nH]c2ccc(CCOc3ccccc3OCC(F)(F)F)cc12 [Compound 547, N-(5-(2-(2-(2,2,2-trifluoroethoxy)phenoxy)ethyl)-1H-indol-3-yl)acetamide] has a pEC50 of 6.00 to 6.70.
C=CCc1ccccc1OCCc1ccc2[nH]cc(NC(C)=O)c2c1 [Compound 548, N-(5-(2-(2-allylphenoxy)ethyl)-1H-indol-3-yl)acetamide] gave a pEC50 of 6.00 to 6.70.
CC(=O)CCc1ccc(OCCc2ccc3[nH]cc(NC(C)=O)c3c2)cc1 [Compound 549, N-(5-(2-(4-(3-oxobutyl)phenoxy)ethyl)-1H-indol-3-yl)acetamide] showed a pEC50 of 5.30 to 6.00.
Compound O=C(Nc1c[nH]c2ccc(O[C@H]3C[C@@H](c4ccc(C(F)(F)F)nc4)C3)cc12)[C@H]1C[C@@H](CO)C1 [Compound 550, cis-3-(hydroxymethyl)-N-(5-(cis-3-(6-(trifluoromethyl)pyridin-3-yl)cyclobutoxy)-1H-indol-3-yl)cyclobutane-1-carboxamide] has a pEC50 of 6.00 to 6.70.
Compound O=C(Nc1c[nH]c2ccc(O[C@H]3C[C@@H](c4ccc(C(F)(F)F)nc4)C3)cc12)[C@H]1C[C@H](CO)C1 [Compound 551, trans-3-(hydroxymethyl)-N-(5-(cis-3-(6-(trifluoromethyl)pyridin-3-yl)cyclobutoxy)-1H-indol-3-yl)cyclobutane-1-carboxamide] has a pEC50 of 6.00 to 6.70.
For O=C(Nc1c[nH]c2ccc(O[C@H]3C[C@H](c4ccc(C(F)(F)F)nc4)C3)cc12)[C@H]1C[C@@H](CO)C1 [Compound 552, cis-3-(hydroxymethyl)-N-(5-(trans-3-(6-(trifluoromethyl)pyridin-3-yl)cyclobutoxy)-1H-indol-3-yl)cyclobutane-1-carboxamide], the pEC50 was 6.00 to 6.70.
O=C(Nc1c[nH]c2ccc(O[C@H]3C[C@H](c4ccc(C(F)(F)F)nc4)C3)cc12)[C@H]1C[C@H](CO)C1 [Compound 553, trans-3-(hydroxymethyl)-N-(5-(trans-3-(6-(trifluoromethyl)pyridin-3-yl)cyclobutoxy)-1H-indol-3-yl)cyclobutane-1-carboxamide] showed a pEC50 of 6.00 to 6.70.
O=C(Nc1c[nH]c2ccc(O[C@H]3C[C@H](c4ccc(C(F)(F)F)cc4)C3)cc12)C1CC(Cl)C1 (stereo partly drawn) [Compound 554, 3-chloro-N-(5-(trans-3-(4-(trifluoromethyl)phenyl)cyclobutoxy)-1H-indol-3-yl)cyclobutane-1-carboxamide] gave a pEC50 of 6.00 to 6.70.
CC(=O)Nc1c[nH]c2ccc(CCOc3cnc4c(C(F)(F)F)cccc4c3)cc12 [Compound 555, N-(5-(2-((8-(trifluoromethyl)quinolin-3-yl)oxy)ethyl)-1H-indol-3-yl)acetamide] was tested, and the pEC50 was 5.30 to 6.00.
With CC(=O)Nc1c[nH]c2ccc(CCOc3ccc(Cl)nc3C)cc12 [Compound 556, N-(5-(2-((6-chloro-2-methylpyridin-3-yl)oxy)ethyl)-1H-indol-3-yl)acetamide] the pEC50 was 4.00 to 5.30.
CC(=O)Nc1c[nH]c2ccc(CCOc3cnc(Cl)c(C)c3)cc12 [Compound 557, N-(5-(2-((6-chloro-5-methylpyridin-3-yl)oxy)ethyl)-1H-indol-3-yl)acetamide] was tested, and the pEC50 was 5.30 to 6.00.
Compound CC(=O)Nc1c[nH]c2ccc(CCOc3ccccc3)cc12 [Compound 558, N-(5-(2-phenoxyethyl)-1H-indol-3-yl)acetamide] has a pEC50 of 6.00 to 6.70.
Work on CC(=O)Nc1c[nH]c2ccc(CCOc3cc(Cl)nc(C(F)(F)F)c3)cc12 [Compound 559, N-(5-(2-((2-chloro-6-(trifluoromethyl)pyridin-4-yl)oxy)ethyl)-1H-indol-3-yl)acetamide] yielded a pEC50 of 6.00 to 6.70.
CC(=O)Nc1c[nH]c2ccc(CCOc3cnc4cccc(Cl)c4c3)cc12 [Compound 560, N-(5-(2-((5-chloroquinolin-3-yl)oxy)ethyl)-1H-indol-3-yl)acetamide] gave a pEC50 of 5.30 to 6.00.
CC1(C(=O)Nc2c[nH]c3ccc(OCCc4ccc(C(F)(F)F)cc4)cc23)CN(CC(F)F)C1 [Compound 561, 1-(2,2-difluoroethyl)-3-methyl-N-(5-(4-(trifluoromethyl)phenethoxy)-1H-indol-3-yl)azetidine-3-carboxamide] gave a pEC50 of 6.70 to 7.40.
N#C[C@H]1C[C@@H]1C(=O)Nc1c[nH]c2ccc(O[C@H]3C[C@H](c4ccc(C(F)(F)F)cc4)C3)cc12 [Compound 562, (1s,2s)-2-cyano-N-(5-((trans)-3-(4-(trifluoromethyl)phenyl)cyclobutoxy)-1H-indol-3-yl)cyclopropane-1-carboxamide] gave a pEC50 of 6.00 to 6.70.
Work on CC1(C)CC1C(=O)Nc1c[nH]c2ccc(O[C@H]3C[C@H](c4ccc(C(F)(F)F)cc4)C3)cc12 (stereo partly drawn) [Compound 563, 2,2-dimethyl-N-(5-(trans-3-(4-(trifluoromethyl)phenyl)cyclobutoxy)-1H-indol-3-yl)cyclopropane-1-carboxamide] yielded a pEC50 of 6.70 to 7.40.
